# Measurements taken from patent publication US20250011288A1 (BRISTOL-MYERS SQUIBB COMPANY, priority 2021, published 2025).
# Target: T1, human RXFP1 (Homo sapiens, UniProt Q9HBX9)
# T1 construct: expressed in transfected cells
# T1 sequence (Q9HBX9 1-757): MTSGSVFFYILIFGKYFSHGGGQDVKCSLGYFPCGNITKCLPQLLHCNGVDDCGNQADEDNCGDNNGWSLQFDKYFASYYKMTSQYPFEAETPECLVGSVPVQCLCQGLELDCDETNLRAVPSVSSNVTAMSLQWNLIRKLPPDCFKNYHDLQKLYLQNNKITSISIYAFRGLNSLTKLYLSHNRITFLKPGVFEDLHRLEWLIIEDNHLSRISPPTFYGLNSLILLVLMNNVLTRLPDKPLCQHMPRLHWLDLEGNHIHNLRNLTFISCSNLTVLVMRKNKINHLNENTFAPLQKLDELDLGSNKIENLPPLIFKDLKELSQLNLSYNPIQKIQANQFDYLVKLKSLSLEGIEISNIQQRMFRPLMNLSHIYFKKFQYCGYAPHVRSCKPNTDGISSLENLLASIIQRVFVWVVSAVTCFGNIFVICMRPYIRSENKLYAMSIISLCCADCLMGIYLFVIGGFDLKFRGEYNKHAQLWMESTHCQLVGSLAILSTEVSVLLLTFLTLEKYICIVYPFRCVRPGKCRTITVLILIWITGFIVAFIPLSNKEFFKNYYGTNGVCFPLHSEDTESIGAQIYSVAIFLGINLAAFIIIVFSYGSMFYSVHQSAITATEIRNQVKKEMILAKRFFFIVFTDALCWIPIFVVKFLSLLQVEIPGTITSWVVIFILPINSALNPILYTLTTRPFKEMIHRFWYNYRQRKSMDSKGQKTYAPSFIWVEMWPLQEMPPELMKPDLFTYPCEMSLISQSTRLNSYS
# Assay: human RXFP1 (hRXFP1) HEK293 cAMP assay (HTRF)
# Assay type: cell-based
# Settings: HEK293 cells stably expressing human RXFP1, 30 min at room temperature
# Outline: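 Intracellular cAMP was quantified by HTRF after a 30 min room-temperature exposure of hRXFP1-HEK293 cells (1500/well) to compound at 0.010 nM–50 µM final, 2% DMSO. Buffer was HBSS with 20 mM HEPES, 0.05% BSA and 0.5 mM IBMX; values came from a 4-parameter logistic fit.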
row,Structure (SMILES),EC50 [nM]
1,"O=C(NC1CCC1)O[C@@H](c1ccc(F)c(-c2cnc(OCCO)c(C(=O)N[C@@H]3C4CCC(/C4=C/C(F)(F)F)[C@@H]3C(=O)Nc3ccc(F)c(C(F)(F)F)c3)c2)c1)C(F)(F)F (stereo partly drawn) [Example 43, (IS)-2,2,2-trifluoro-1-14-fluoro-3-(5-{[(2R,3S,7Z)-3-{[4-fluoro-3-(trifluoromethyl)phenyl]carbamoyl}-7-(2,2,2-trifluoroethylidene)bicyclo[2. 2.1]heptan-2-yl]carbamoyl}-6-(2-hydroxyethoxy)pyridin-3-yl)phenyl]ethyl N-cyclobutylcarbamate]",9.4
2,"COc1ncc(-c2cc(C(=O)O)ccc2F)nc1C(=O)N[C@H]1[C@@H](C(=O)Nc2ccc(F)c(C(F)(F)F)c2)[C@H]2CC[C@@H]1/C2=C\c1cnoc1 [Example 26, 4-fluoro-3-(6-(((1R,2R,3S,4R,Z)-3-((4-fluoro-3-(trifluoromethyl)phenyl)carbamoyl)-7-(isoxazol-4-ylmethylene)bicyclo[2.2.1]heptan-2-yl)carbamoyl)-5-methoxypyrazin-2-yl)benzoic acid]",76
3,"CC(C)=C1C2CCC1[C@H](C(=O)Nc1ccc(F)c(C(F)(F)F)c1)[C@@H]2NC(=O)c1cc(C#N)ccn1 (stereo partly drawn) [Example 3, 4-cyano-N-[(2R,3S)-3-{[4-fluoro-3-(trifluoromethyl)phenyl]carbamoyl}-7-(propan-2-ylidene)bicyclo [2.2.1]heptan-2-yl]pyridine-2-carboxamide]",440
4,"COc1ncc(CCCO)cc1C(=O)N[C@@H]1C2CCC(/C2=C/C(F)(F)F)[C@@H]1C(=O)Nc1ccc(F)c(C(F)(F)F)c1 (stereo partly drawn) [Example 50, N-[(2R,3S,7Z)-3-{[4-fluoro-3-(trifluoromethyl)phenyl]carbamoyl}-7-(2,2,2-trifluoroethylidene)bicyclo[2.2.1]heptan-2-yl]-5-(3-hydroxypropyl)-2-methoxypyridine-3-carboxamide]",129
5,"COc1ncc(C2=NOC3CC(C(O)C(F)(F)F)CC23)cc1C(=O)N[C@H]1[C@@H](C(=O)Nc2ccc(F)c(C(F)(F)F)c2)[C@H]2CC[C@@H]1/C2=C\CC(O)C(F)(F)F (stereo partly drawn) [Example 129, N-((1R,2R,3S,4R,Z)-3-((4-fluoro-3-(trifluoromethyl)phenyl)carbamoyl)-7-(4,4,4-trifluoro-3-hydroxybutylidene)bicyclo[2.2.1]heptan-2-yl)-2-methoxy-5-(5-(2,2,2-trifluoro-1-hydroxyethyl)-3a,5,6,6a-tetrahydro-4H-cyclopenta[d]isoxazol-3-yl)nicotinamide]",5
6,"COc1cnc(-c2cc(C(=O)O)ccc2F)cc1C(=O)N[C@@H]1C2CCC(/C2=C/C(F)(F)F)[C@@H]1C(=O)Nc1ccc(F)c(C(F)(F)F)c1 (stereo partly drawn) [Example 30, 4-Fluoro-3-(4-{[(2R,3S,7Z)-3-{[4-fluoro-3-(trifluoromethyl)phenyl]carbamoyl}-7-(2,2,2-trifluorocthylidene)bicyclo[2. 2.1]heptan-2-yl]carbamoyl}-5-methoxypyridin-2-yl)benzoic acid]",109
7,COc1cc2c(cc1C(=O)N[C@@H]1C3CCC(/C3=C/C3CC3)[C@@H]1C(=O)Nc1ccc(F)c(C(F)(F)F)c1)CCN(S(C)(=O)=O)C2 (stereo partly drawn) [Example 93],1700
8,"COc1ncc(C2=NOC3CC(CO)CC23)cc1C(=O)N[C@H]1[C@@H](C(=O)Nc2ccc(F)c(C(F)(F)F)c2)[C@H]2CC[C@@H]1/C2=C\c1csc(C)n1 (stereo partly drawn) [Example 120, N-((1R,2R,3S,4R,Z)-3-((4-fluoro-3-(trifluoromethyl)phenyl)carbamoyl)-7-((2-methylthiazol-4-yl)methylene)bicyclo [2.2.1]heptan-2-yl)-5-(5-(hydroxymethyl)-3a,5,6,6a-tetrahydro-4H-cyclopenta[d]isoxazol-3-yl)-2-methoxynicotinamide]",4.8
9,"COc1ncc(-c2cc(C(=O)O)ccc2F)cc1C(=O)N[C@@H]1C2CCC(/C2=C/c2ccccc2)[C@@H]1C(=O)Nc1ccc(F)c(C(F)(F)F)c1 (stereo partly drawn) [Example 25, 4-Fluoro-3-(5-{[(2R,3S,7Z)-3-{[4-fluoro-3-(trifluoromethyl)phenyl]carbamoyl}-7-(phenylmethylidene)bicyclo[2.2.1]heptan-2-yl]carbamoyl}-6-methoxypyridin-3-yl)benzoic acid]",33
10,"COc1ccc(-c2cc(C(=O)O)ccc2F)nc1C(=O)N[C@@H]1C2CCC(/C2=C/c2cnoc2)[C@@H]1C(=O)Nc1ccc(F)c(C(F)(F)F)c1 (stereo partly drawn) [Example 27, 4-Fluoro-3-(6-{[(2R,3S,7Z)-3-{[4-fluoro-3-(trifluoromethyl)phenyl]carbamoyl}-7-[(1,2-oxazol-4-yl)methylidene]bicyclo[2.2.1]heptan-2-yl]carbamoyl}-5-methoxypyridin-2-yl)benzoic acid]",290

# The next compounds have a lower EC50 than those just listed; values first:
row,EC50 [nM],Structure (SMILES)
1,3.5,"COc1ncc(C2=NOC3CC(C(O)C(F)(F)F)CC23)cc1C(=O)N[C@H]1[C@@H](C(=O)NC23CC(C#N)(C2)C3)[C@H]2CC[C@@H]1/C2=C\C1CC1 (stereo partly drawn) [Example 108, N-((1R,2R,3S,4R,Z)-3-((3-cyanobicyclo [1.1.1]pentan-1-yl)carbamoyl)-7-(cyclopropyl-methylene)bicyclo[2.2.1]heptan-2-yl)-2-methoxy-5-(5-(2,2,2-trifluoro-1-hydroxyethyl)-3a,5,6,6a-tetrahydro-4H-cyclopenta[d]isoxazol-3-yl)nicotinamide]"
2,2.6,"COc1ncc(C2=NOC3CC(C(O)C(F)(F)F)CC23)cc1C(=O)N[C@H]1[C@@H](C(=O)Nc2ccc(F)c(C(F)(F)F)c2)[C@H]2CC[C@@H]1/C2=C\C1CCC1 (stereo partly drawn) [Example 122, N-((1R,2R,3S,4R,Z)-7-(cyclobutyl-methylene)-3-((4-fluoro-3-(trifluoromethyl)phenyl)carbamoyl)bicyclo[2.2.1]heptan-2-yl)-2-methoxy-5-(5-(2,2,2-trifluoro-1-hydroxyethyl)-3a,5,6,6a-tetrahydro-4H-cyclopenta[d]isoxazol-3-yl)nicotinamide]"
3,1.4,"COc1ncc(C2=NOC3CC(CO)CC23)cc1C(=O)N[C@H]1[C@@H](C(=O)Nc2ccc(F)c(C(F)(F)F)c2)[C@H]2CC[C@@H]1/C2=C\c1cscn1 (stereo partly drawn) [Example 96, N-((1R,2R,3S,4R,Z)-3-((4-fluoro-3-(trifluoromethyl)phenyl)carbamoyl)-7-(thiazol-4-ylmethylene)bicyclo[2.2.1]heptan-2-yl)-5-(5-(hydroxymethyl)-3a,5,6,6a-tetrahydro-4H-cyclopenta[d]isoxazol-3-yl)-2-methoxy-nicotinamide]"
4,1.3,"COc1ncc(C2=NOC3CC(O)CC23)cc1C(=O)N[C@H]1[C@@H](C(=O)Nc2ccc(F)c(C(F)(F)F)c2)[C@H]2CC[C@@H]1/C2=C\CCC(F)(F)F (stereo partly drawn) [Example 121, N-((1R,2R,3S,4R,Z)-3-((4-fluoro-3-(trifluoromethyl)phenyl)carbamoyl)-7-(4,4,4-trifluorobutylidene)bicyclo[2.2.1]heptan-2-yl)-5-(5-hydroxy-3a,5,6,6a-tetrahydro-4H-cyclopenta[d]isoxazol-3-yl)-2-methoxynicotinamide]"
5,0.6,"COc1ncc(C2=NOC3CC(C(O)C(F)(F)F)CC23)cc1C(=O)N[C@H]1[C@@H](C(=O)Nc2ccc(F)c(C(F)(F)F)c2)[C@H]2CC[C@@H]1/C2=C\C1CCCC1 (stereo partly drawn) [Example 173, N-[(1R,2R,3S,4R, 7Z)-7-(cyclopentyl-methylidene)-3-{[4-fluoro-3-(trifluoromethyl)phenyl]carbamoyl}bicyclo[2.2.1]heptan-2-yl]-2-methoxy-5-[5-(2,2,2-trifluoro-1-hydroxyethyl)-3aH,4H,5H,6H, 6aH-cyclopenta[d][1,2]oxazol-3-yl]pyridine-3-carboxamide]"
